# In patent US20150291658A1, “NOVEL CHONDRAMIDE DERIVATIVES” (HELMOLTZ-ZENTRUM FÜR INFEKTIONSFORSCHUNG, priority 2012, published 2015):
# Like-named read-outs stand apart in the source and are kept apart here.
# Tests used:
# [1] = system: KB-3.1: human cervical carcinoma; experiment: Growth inhibition experiments (GI50), KB-3.1; assay type: cell-based; conditions: for GI50 KB-3.1: group A derivatives, small panel of cancer cell lines, KB-3.1 human cervical carcinoma; for GI50 values KB-3.1: Table 1
# [2] = system: human U-2 OS osteosarcoma cell line; experiment: Growth inhibition experiments (MTT, 5 d), U-2 OS; assay type: cell-based
# Method: (§1) Cells were seeded at 6×10^3 cells per well of 96-well plates (Corning CellBind®) in 180 μl complete medium and directly treated with chondramides dissolved in methanol in a serial dilution. Each compound was tested in duplicate for 5 d, as well as the internal methanol control. After 5 d incubation, 20 μl of 5 mg/ml MTT (Mosmann, T. (1983). Rapid Colorimetric Assay for Cellular Growth and Survival: Application to Proliferation and Cytotoxicity Assays. J. Immunol. Meth. 65, 55-63) in PBS was added per well and it was further incubated for 2 h at 37° C. The medium was then discarded and cells were washed with 100 μl PBS before adding 100 μl 2-propanol/10 N HCl (250:1) in order to dissolve formazan granules. The absorbance at 570 nm was measured using a microplate reader (EL808, Bio-Tek Instruments Inc.), and cell viability was expressed as percentage relative to the respective methanol control. GI50 values were obtained by sigmoidal curve fitting. Testing of fractions was performed likewise using 1.2×10^4 cells per well. Samples were dissolved in cell culture medium and cells were treated for 2 d before adding MTT. Viability was expressed relative to the untreated control.
# [3] = system: RAW246.7: murine leukemic monocyte macrophages; experiment: Growth inhibition experiments (GI50), RAW246.7; assay type: cell-based; conditions: group A derivatives, small panel of cancer cell lines
# [4] = system: HCT-116 colon carcinoma cell line; experiment: Growth inhibition experiments (MTT, 5 d), HCT-116; assay type: cell-based, human
# Method: as §1
# [5] = system: fibroblast cell line MRC5; experiment: Growth inhibition experiments (MTT, 5 d), MRC5; assay type: cell-based, human; conditions: Table 1
# Method: (§2) With primary cells (HUVEC, human umbilical vein endothelial cells) and the fibroblast cell line MRC5 this is not the case. Whereas chondramides A˜C are comparably active on both, cancer and non-cancerous cells, brominated chondramide C3 analogs are on average by factor 2-4 less toxic for non-cancerous cells. Accordingly they show a higher selectivity.
# as §1
# L-929 = experiment: Growth inhibition experiments (GI50), L-929; assay type: cell-based; conditions: Table 1
# [6] = system: HUVEC, human umbilical vein endothelial cells (primary cells); experiment: Growth inhibition experiments (MTT, 5 d), HUVEC; assay type: cell-based; conditions: Table 1
# Excerpt: as §2
# Cell lines were obtained from the American Type Culture Collection (ATCC) and the German Collection of Microorganisms and Cell Cultures (Deutsche Sammlung für Mikroorganismen and Zellkulturen, DSMZ), and HUVEC (single donor) were purchased from PromoCell. Cells were cultured under the conditions recommended by the respective depositor in a standard humidified incubator at 37° C. with 5% CO2.
# as §1
# [7] = system: multidrug resistant (MDR) KB-V.1 cell line; experiment: Growth inhibition experiments (MTT, 5 d), KB-V.1; assay type: cell-based; conditions: Table 1
# Method: Cancer Inst. 90, 1559-1563). […] The same applies for most novel derivatives, solely a hydroxyl group at C2′ of the polyketide segment instead of methoxy or simply hydrogen leads to an approximately 10-fold reduced potency. GI50 values of glycosylated derivatives were not determinable precisely in the assay's concentration range.
# as §1
# [8] = group A derivatives, small panel of cancer cell lines, U-2 OS human osteosarcoma, read-out: GI50 U-2 OS
# [9] = group A derivatives, small panel of cancer cell lines, HCT-116 human colon carcinoma, read-out: GI50 HCT-116
# [10] = Table 1, U-2 OS, read-out: GI50 values U-2 OS
# [11] = Table 1, HCT-116, read-out: GI50 values HCT-116
smiles,measurement,setting,value
"CCC1C/C=C(\C)CC(C)C(=O)NC(C)C(=O)N(C)C(Cc2c(Cl)[nH]c3ccccc23)C(=O)NC(c2ccc(O)c(Cl)c2)CC(=O)O1 (single isomer, unassigned) [CA7-Fr1]",GI50 KB-3.1,[1],97.9 nM
same,GI50,[2]; [8],53.5 nM
same,GI50,[3],74.7 nM
same,GI50,[4]; [9],16.3 nM
C/C1=C\CCOC(=O)CC(c2ccc(O)c(Br)c2)NC(=O)C(Cc2c[nH]c3ccccc23)N(C)C(=O)C(C)NC(=O)CC1 (stereo not shown) [CA3],GI50 KB-3.1,[1],6.4 nM
same,GI50,[2]; [8],1.8 nM
same,GI50,[3],6.2 nM
same,GI50,[4]; [9],2.1 nM
C/C1=C\CCOC(=O)CC(c2ccc(O)c(Cl)c2)NC(=O)C(C(C)C)N(C)C(=O)C(C)NC(=O)CC1 (stereo not shown) [CA9],GI50 KB-3.1,[1],>180 nM
same,GI50,[2]; [8],> 180 nM
same,GI50,[3],> 180 nM
same,GI50,[4]; [9],180 nM
CCC1C/C=C(\C)CCC(=O)NC(C)C(=O)N(C)C(Cc2c(Cl)[nH]c3ccccc23)C(=O)NC(c2ccc(O)c(Cl)c2)CC(=O)O1 (stereo not shown) [CA8],GI50 KB-3.1,[1],1.1 nM
same,GI50,[2]; [8],0.6 nM
same,GI50,[3],0.8 nM
same,GI50,[4]; [9],0.2 nM
"C/C1=C\[C@@H](C)[C@@H](C)OC(=O)C[C@H](c2ccc(O)cc2)NC(=O)[C@@H](Cc2c[nH]c3ccccc23)N(C)C(=O)[C@H](C)NC(=O)[C@@H](C)C1 [Chondramide C, reference compound]",GI50 values KB-3.1,[1],36.8 ± 6.8 nM
same,GI50,[5],26.1 ± 4.7 nM
same,GI50,[2]; [10],25.6 ± 1.2 nM
same,GI50,L-929,87.3 ± 14.9 nM
same,GI50,[6],34 ± 3.7 nM
same,GI50,[4]; [11],33.7 ± 3.2 nM
same,GI50 values KB-V.1,[7],85.8 ± 14.9 nM
"CCC1C/C=C(\C)CC(C)C(=O)NC(C)C(=O)N(C)C(C(C)C)C(=O)NC(c2ccc(O)c(Cl)c2)CC(=O)O1 (single isomer, unassigned) [CA6-Fr2]",GI50 KB-3.1,[1],74.5 nM
same,GI50,[2]; [8],65.4 nM
same,GI50,[3],105 nM
same,GI50,[4]; [9],101 nM
"CCC1C/C=C(\C)CC(C)C(=O)NC(C)C(=O)N(C)C(C(C)C)C(=O)NC(c2ccc(O)c(Cl)c2)CC(=O)O1 (single isomer, unassigned) [CA6-Fr1]",GI50 KB-3.1,[1],71.4 nM
same,GI50,[2]; [8],59.6 nM
same,GI50,[3],41.1 nM
same,GI50,[4]; [9],79.4 nM
"CCC1C/C=C(\C)CC(C)C(=O)NC(C)C(=O)N(C)C(Cc2c(Cl)[nH]c3ccccc23)C(=O)NC(c2ccc(O)c(Cl)c2)CC(=O)O1 (single isomer, unassigned) [CA7-Fr2]",GI50 KB-3.1,[1],1.9 nM
same,GI50,[2]; [8],1.3 nM
same,GI50,[3],1.8 nM
same,GI50,[4]; [9],0.8 nM
"CO[C@@H]1C(=O)O[C@H](C)[C@@H](C)C=C(C)C[C@H](C)C(=O)N[C@@H](C)C(=O)N(C)[C@H](Cc2c(Cl)[nH]c3ccccc23)C(=O)NC1c1ccc(O)cc1 (stereo partly shown) [Chondramide B, reference compound]",GI50 values KB-3.1,[1],40.7 ± 9.4 nM
same,GI50,[5],20.9 ± 3.2 nM
same,GI50,[2]; [10],20.8 ± 1.9 nM
same,GI50,L-929,80.8 ± 13.6 nM
same,GI50,[6],30.7 ± 2.9 nM
same,GI50,[4]; [11],30.1 ± 9.5 nM
same,GI50 values KB-V.1,[7],56.4 ± 9.1 nM
CCC1C/C=C(\C)CCC(=O)NC(C)C(=O)N(C)C(C(C)C)C(=O)NC(c2ccc(O)c(Cl)c2)CC(=O)O1 (stereo not shown) [CA4],GI50 KB-3.1,[1],58.2 nM
same,GI50,[2]; [8],> 180 nM
same,GI50,[3],29.8 nM
same,GI50,[4]; [9],25.5 nM
CCC1C/C=C(\C)CCC(=O)NC(C)C(=O)N(C)C(C(C)C)C(=O)NC(c2ccc(O)c(Cl)c2)CC(=O)O1 (stereo not shown) [CA5],GI50 KB-3.1,[1],68.7 nM
same,GI50,[2]; [8],153 nM
same,GI50,[3],56.2 nM
same,GI50,[4]; [9],77.3 nM
CC1=CC(C)C(C)OC(=O)CC(c2ccc(O)c(Br)c2)NC(=O)C(Cc2c[nH]c3ccccc23)N(C)C(=O)C(C)NC(=O)C(C)C1 (stereo not shown) [Bromo-Chondramide C3],GI50 values KB-3.1,[1],46.8 ± 6.5 nM
same,GI50,[5],57.7 ± 3.5 nM
same,GI50,[2]; [10],4.8 ± 1.7 nM
same,GI50,L-929,14 ± 1.4 nM
same,GI50,[6],44.4 ± 7 nM
same,GI50,[4]; [11],17.7 ± 1.3 nM
same,GI50 values KB-V.1,[7],23.8 ± 2.1 nM
C/C1=C\CCOC(=O)CC(c2ccc(O)c(Cl)c2)NC(=O)C(Cc2c(Cl)[nH]c3ccccc23)N(C)C(=O)C(C)NC(=O)CC1 (stereo not shown) [CA2],GI50 KB-3.1,[1],375.9 nM
same,GI50,[2]; [8],66.7 nM
same,GI50,[3],180 nM
same,GI50,[4]; [9],30.5 nM
